Reference: patent EP1410783B1, “Foaming compositions” (Beiersdorf AG, priority 2001, dated 2003)

Test: Polarity of lipids (no method described)
Type: physicochemical
Conditions: further lipids with polarity ≥ 30 mN/m, listed by INCI name

Row | Compound | Polarität
1 | CCCCC(CC)COC(=O)CCCCCC(C)C (stereo not drawn) [2- Ethylhexyl Isononanoate] | 31,0 mN/m
2 | CCCCCCCC/C=C\CCCCCCCC(=O)OCCOCCOCC [Ethoxydiglycol Oleate] | 40,5 mN/m
3 | CCCCCCCCCCCCCC(C)C [Isohexadecane] | 43,8 mN/m
4 | CCCCCCCCOC(=O)CCCCCCCCCCCCCCC(C)C [Octyl Isostearate] | 31,6 mN/m
5 | CC(CCOC(=O)CC(C)CC(C)(C)C)CC(C)(C)C (stereo not drawn) [Trimethylhexyl Isononanoate] | 31,1 mN/m
6 | Dioctylcyclohexane | 39,0 mN/m
7 | Isocetyl Palmitate | 36,2 mN/m
8 | Isoeikosan | 41,9 mN/m

Same assay, conditions: lipids of the oil phase with polarity ≤ 30 mN/m, listed by manufacturer, trade name and INCI name

Row | Compound | Polarität
9 | CCCCOC(=O)CCCCC(=O)OCCCC [Cetiol B, Dibutyl Adipate] | 14,3 mN/m
10 | CC(C)CCCCCCCOC(=O)C(C)(C)C [DUB VCI 10, Isodecyl Neopentanoate] | 29,9 mN/m
11 | CCCCC(CC)C(=O)OCCC(C)CC(C)(C)C (stereo not drawn) [Dermol 98, 2-Ethylhexanosäure 3,5,5 Trimethylester] | 26,2 mN/m
12 | CCCCCCCC(=O)OCCCCCCCC(C)C [Dermol 108, Isodecyl Octanoate] | 29,6 mN/m
13 | CC(C)CCCCCCCOC(=O)CC(C)CC(C)(C)C (stereo not drawn) [Dermol 109, Isodecyl 3,5,5 Trimethyl Hexanoate] | 29,1 mN/m
14 | CCCCCCCCCC(=O)OCCCC(C)C [Dermol IHD, Isohexyldecanoate] | 29,7 mN/m
15 | CCCCCCOCCCCCC [Dihexyl Ether] | 29,2 mN/m
16 | CCCCCCCCCCC(CO)CCCCCCCC (stereo not drawn) [Eutanol G, Octyldodecanol] | 24,8 mN/m
17 | CCCCCCC(CCCC)C(=O)O (stereo not drawn) [Isocarb 12, Butyl Octanoicacid] | 22,1 mN/m
18 | CCCCCCC(CO)CCCC (stereo not drawn) [Isofol 12, Butyl Octanol] | 17,4 mN/m
19 | CCCCCCCCC(CO)CCCCCC (stereo not drawn) [Isofol 16, Hexyl Decanol] | 24,3 mN/m
20 | CCCCCCCCCCCCCCCCCC(=O)OC(C)C [Isopropylstearat, Isopropyl Stearate] | 21,9 mN/m
21 | CCCCCCCCCCCCCC(=O)OCC(CCCCCCCC)CCCCCCCCCC (stereo not drawn) [M.O.D., Octyldodeceyl Myristate] | 22,1 mN/m
22 | CCCCCCCCCCCCCCCCCCOC(=O)CCCCCC [Tegosoft SH, Stearyl Heptanoate] | 17,8 mN/m
23 | CCCCCCCC(=O)OCC(COC(=O)CCCCCCC)OC(=O)CCCCCCC [Trivent OCG, Tricaprylin] | 20,2 mN/m
24 | Cetearyl Isononanoate [Cetiol SN] | 28,6 mN/m
25 | Cyclomethicone [DC Fluid 345] | 28,5 mN/m
26 | Cyclopolydimethylsiloxan [Dow Corning Fluid 244] | 28,5 mN/m
27 | Isotridecyl 3,5,5 Trimethylhexanonanoate [Dermol 139] | 24,5 mN/m
28 | PEG 2 Diethylenhexanoate [Dermol 488] | 10,1 mN/m
29 | Phenyl Trimethicone [Silikonöl VP 1120] | 22,7 mN/m
30 | Triisostearin [Prisorine 2041 GTIS] | 2,4 mN/m
